# T1: monomeric L-selectin (Homo sapiens, UniProt P14151)
# T1 construct: purchased Genzyme-Techne
# T1 sequence (P14151 39-332 limits assumed): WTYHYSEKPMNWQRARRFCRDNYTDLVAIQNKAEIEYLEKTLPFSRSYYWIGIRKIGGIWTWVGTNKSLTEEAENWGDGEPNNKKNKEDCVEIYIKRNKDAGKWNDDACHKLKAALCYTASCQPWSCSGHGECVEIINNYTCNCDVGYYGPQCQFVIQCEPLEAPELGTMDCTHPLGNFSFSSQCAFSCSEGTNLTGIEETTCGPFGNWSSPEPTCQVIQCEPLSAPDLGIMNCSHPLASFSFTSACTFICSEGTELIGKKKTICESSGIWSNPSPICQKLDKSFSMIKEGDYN
# T2: monomeric P-selectin (Homo sapiens, UniProt P16109)
# T2 construct: purchased Genzyme-Techne
# T2 sequence (P16109 42-771 limits assumed): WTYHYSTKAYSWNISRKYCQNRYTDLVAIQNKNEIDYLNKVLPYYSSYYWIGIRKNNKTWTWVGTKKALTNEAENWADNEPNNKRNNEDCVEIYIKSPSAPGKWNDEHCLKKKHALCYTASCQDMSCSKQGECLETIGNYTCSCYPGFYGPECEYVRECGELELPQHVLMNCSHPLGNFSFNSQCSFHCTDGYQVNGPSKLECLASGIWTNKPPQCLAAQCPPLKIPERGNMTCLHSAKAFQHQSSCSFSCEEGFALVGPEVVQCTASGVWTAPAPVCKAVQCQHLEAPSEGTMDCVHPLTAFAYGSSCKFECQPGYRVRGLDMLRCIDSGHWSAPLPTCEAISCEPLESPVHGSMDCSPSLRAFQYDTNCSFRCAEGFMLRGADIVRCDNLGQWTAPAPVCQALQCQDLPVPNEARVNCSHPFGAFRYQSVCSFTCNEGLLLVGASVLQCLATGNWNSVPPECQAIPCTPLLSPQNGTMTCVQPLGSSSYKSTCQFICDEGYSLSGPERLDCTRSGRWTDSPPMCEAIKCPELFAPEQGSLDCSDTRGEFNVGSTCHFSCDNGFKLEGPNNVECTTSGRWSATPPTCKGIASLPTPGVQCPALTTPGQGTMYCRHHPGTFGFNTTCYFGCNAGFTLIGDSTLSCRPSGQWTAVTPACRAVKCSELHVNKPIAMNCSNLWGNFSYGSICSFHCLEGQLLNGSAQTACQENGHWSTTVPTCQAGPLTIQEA
# B1: P-selectin glycoprotein ligand-1: known ligand of P-selectin (protein, UniProt Q14242 42-412, looked up)
# P-selectin glycoprotein …: QATEYEYLDYDFLPETEPPEMLRNSTDTTPLTGPGTPESTTVEPAARRSTGLDAGGAVTELTTELANMGNLSTDSAAMEIQTTQPAATEAQTTQPVPTEAQTTPLAATEAQTTRLTATEAQTTPLAATEAQTTPPAATEAQTTQPTGLEAQTTAPAAMEAQTTAPAAMEAQTTPPAAMEAQTTQTTAMEAQTTAPEATEAQTTQPTATEAQTTPLAAMEALSTEPSATEALSMEPTTKRGLFIPFSVSSVTHKGIPMAASNLSVNYPVGAPDHISVKQCLLAILILALVATIFFVCTVVLAVRLSRKGHMYPVRNYSPTEMVCISSLLPDGGEGPSATANGGLSKAKSPGLTPEPREDREGDDLTLHSFLP
# Assays:
# [1] = target: T1, monomeric L-selectin; assay: BIAcore surface plasmon resonance, immobilized glycosaminoglycan vs monomeric L-selectin; format: binding; conditions: monomeric L-selectin
# Method: (§1) Affinity kinetics of the interaction between various CS/DS chains and each of L-selectin, P-selectin, CD44 and chemokine were examined by surface plasmon resonance using BIAcore™ biosensor [manufactured by BIAcore AB].
# (§2) All experiments were performed at 25° C. At stages of washing and dissociation, buffer C (20 mM HEPES-NaOH, 0.15M NaCl, 1 mM CaCl2, 1 mM MgCl2, pH6.8) was used as a running buffer.
# (§3) First, about 1.8 to 2.0 kiloresonance unit (1 kiloresonance unit=1 ng/mm^2) of streptavidin were covalently immobilized onto B1 sensor chip via a primary amine group using an amine coupling kit [manufactured by Amercham-Bioscience] according to the instruction provided by the manufacturer. The remaining activated groups were blocked with 150 μl of 1M ethanolamine-HCl (pH8.5). Then, each glycosaminoglycan which had been biotinylated at a reducing end was injected to a sensor tip surface by using EZ-link™ biotin-LC-hydrazide [manufactured by Pierce] so as to obtain about 150 resonance unit of an immobilization level, according to the method of Sadir et al. [J. Biol. Chem., 276, 8288-8296 (2001); all teachings of which are hereby incorporated by reference].
# (§4) Binding assay was performed by injecting continuously each of various concentrations of secondary lymphoid tissue chemokine, γ-interferon inducible protein-10, stromal cell-derived factor-1β, monomeric L-selectin [manufactured by Genzyme-Techne], monomeric P-selectin [manufactured by Genzyme-Techne] and monomeric CD44, to a glycosaminoglycan-coupled sensor tip at a flow rate of 30 μl/min for 0 to 90 seconds, and then injecting a running buffer thereto. A response in resonance unit was recorded as a function of a time.
# (§5) A sensor tip surface was regenerated with 300 μl of 1 M NaCl when chemokine or CD44 was used, or regenerated with 300 μl of 1 M NaCl, and additional 100 μl of 50 mM EDTA (pH8.0), when selectin was used. As a result of regeneration of a sensor tip surface, a remarkable change in a baseline was not observed.
# (§6) An affinity kinetic parameter was determined by BIAevaluation 3.0 software [manufactured by Pharmacia Biosensor] using a single site binding model. […] In FIG. 6 and Table 3, SLC denotes secondary lymphoid tissue chemokin, IP-10 denotes γ-interferon inducible protein-10, SDF-1β denotes stromal cell-derived factor-1β, CS E denotes chondroitin sulfate E, and CS A denotes chondroitin sulfate A. In addition, in Table 3, Kd value for the interaction between monomeric CD44 and chondroitin sulfate E is a value calculated from a binding amount at equilibrium, and Kd value of the interaction between CD44 and hyaluronic acid is a value calculated using CD44-Ig.
# [2] = target: T2, monomeric P-selectin; assay: BIAcore surface plasmon resonance, immobilized glycosaminoglycan vs monomeric P-selectin; format: binding; conditions: monomeric P-selectin
# Method: as §1, §2, §3, §4, §5, §6
# [3] = target: T3, monomeric CD44 (Homo sapiens, UniProt P16070); assay: BIAcore surface plasmon resonance, immobilized glycosaminoglycan vs monomeric CD44; format: binding; conditions: CD44 monomeric; GAG immobilized; 25° C.
# T3 construct: codons of amino acids positions 172 to 178 of human CD44; Myc-His (from vector pcDNA 3.1/Myc-His(+) B) (C); made in house; host or cells: 293T cells, secreted into conditioned medium and purified on anti-CD44 BRIC 235 Sepharose
# Method: Human-derived CD44 cDNA was prepared by PCR using a sense primer (SEQ ID NO: 1):
# Thereafter, the conditioned medium was subjected to immunoaffinity chromatography with anti-CD44 monoclonal antibody BRIC 235-coupled CNBr-activated Sepharose 4B, to obtain monomeric CD44. The resulting soluble CD44 was subjected to SDS-PAGE and silver staining. As a result, the purity of the resulting soluble CD44 was more than 95%.
# as §1, §2, §3, §4, §5, §6
# [4] = test system: secondary lymphoid tissue chemokine; assay: BIAcore surface plasmon resonance, immobilized glycosaminoglycan vs SLC; format: binding
# Method: as §1, §2, §3, §4, §5, §6
# [5] = target: γ-interferon inducible protein-10 (Homo sapiens, UniProt P02778); assay: BIAcore surface plasmon resonance, immobilized glycosaminoglycan vs IP-10; format: binding
# Method: as §1, §2, §3, §4, §5, §6
# [6] = target: T4, stromal cell-derived factor-1β (Homo sapiens, UniProt P48061); assay: BIAcore surface plasmon resonance, immobilized glycosaminoglycan vs SDF-1β; format: binding
# T4 construct: purchased Pepro Tech
# Method: as §1, §2, §3, §4, §5, §6
# [7] = target: T5, L-selectin-Ig (Homo sapiens, UniProt P14151); assay: Binding inhibition assay (ELISA), biotinylated versican to L-selectin-Ig, various concentrations; conditions: dose-dependent, FIG. 2 panel A
# T5 construct: purchased R & D Systems Inc
# Method: (§7) Inhibition assay of binding between versican and each of L-selectin, P-selectin and CD44 was performed as follows. First, each well on a 96 well flat bottom microtiter plate (Coster EIA/RIA plate No. 3690) was coated with L-selectin-Ig (3 μg/ml), P-selectin-Ig (4 μg/ml) or CD44-Ig (0.25 μg/ml) by a conventional procedure. […] The plate was incubated at room temperature for 2 hours. Thereafter, the plate was washed with the buffer A, and enzyme-linked immunosorbent assay was performed in the same manner as described in Kawashima, H. et al. [J. Biol. Chem., 275, 35448-35456 (2000)]. Binding was determined by measuring absorbance at 620 nm using alkaline phosphatase-conjugated streptavidin and Blue Phos™ substrate.
# [8] = test system: P-selectin-Ig; assay: Binding inhibition assay (ELISA), biotinylated versican to P-selectin-Ig, various concentrations; conditions: dose-dependent, FIG. 2 panel B
# Method: as §7
# [9] = test system: CD44-Ig; assay: ELISA, biotinylated versican binding to CD44-Ig in presence of glycosaminoglycan; parameters: species or system human; conditions: 100 μg/ml glycosaminoglycan; FIG. 5
# Method: A well of a 96 well flat bottom microtiter plate was coated with BSA (5 μg/ml), anti-versican monoclonal antibody 2B1 (5 μg/ml), CD44-Ig (7 μg/ml), L-selectin-Ig (3 μg/ml), P-selectin-Ig (3 μg/ml) or chemokine (1 μg/ml), and then blocked with a phosphate buffered physiological saline containing 3% by weight of BSA. As the above chemokine, secondary lymphoid tissue chemokine, γ-interferon inducible protein-10, platelet factor 4, stromal cell-derived factor-1β [manufactured by Pepro Tech] and stromal cell-derived factor-1α [manufactured by Pepro Tech] were used.
# Thereafter, the plate was washed with the buffer A, and enzyme-linked immunosorbent assay was performed in the same manner as that of the previous report [Kawashima, H. et al., J. Biol. Chem., 275, 35448-35456 (2000)]. Binding was determined by measuring absorbance at 620 nm using alkaline phosphatase-conjugated streptavidin and Blue Phos™ substrate. In FIG. 5, expression of an abscissa axis is the same as that of FIG. 4.
# [10] = test system: CD44-Ig; assay: BIAcore surface plasmon resonance, hyaluronic acid vs CD44-Ig; parameters: species or system human; conditions: bivalent analyte binding model
# Method: Then, using the resulting CD44, human CD44-immunoglobulin (Ig) was prepared according to the method described in Toyama-Sorimachi, N. [J. Biol. Chem., 270, 7437-7444, (1995); all teachings of which are hereby incorporated by reference].
# as §1, §2
# First, about 1.8 to 2.0 kiloresonance unit (1 kiloresonance unit=1 ng/mm^2) of streptavidin were covalently immobilized onto B1 sensor chip via a primary amine group using an amine coupling kit [manufactured by Amercham-Bioscience] according to the instruction provided by the manufacturer. The remaining activated groups were blocked with 150 μl of 1M ethanolamine-HCl (pH8.5). […]
# as §4, with “time. […]” for “time.”
# In FIG. 6 and Table 3, SLC denotes secondary lymphoid tissue chemokin, IP-10 denotes γ-interferon inducible protein-10, SDF-1β denotes stromal cell-derived factor-1β, CS E denotes chondroitin sulfate E, and CS A denotes chondroitin sulfate A. In addition, in Table 3, Kd value for the interaction between monomeric CD44 and chondroitin sulfate E is a value calculated from a binding amount at equilibrium, and Kd value of the interaction between CD44 and hyaluronic acid is a value calculated using CD44-Ig.
# [11] = target: T2, monomeric P-selectin; conditions: cited from earlier work
# CD44-Ig, sequence (P16070 21-178 limits assumed): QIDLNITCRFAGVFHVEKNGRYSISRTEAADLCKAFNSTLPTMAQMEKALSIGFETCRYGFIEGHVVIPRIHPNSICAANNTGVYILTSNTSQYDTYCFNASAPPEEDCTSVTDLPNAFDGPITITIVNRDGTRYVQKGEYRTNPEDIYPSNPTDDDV
# T3 sequence (P16070 21-178 limits assumed): as above
# T5 sequence (P14151 with tags, fused parts or gaps limits assumed): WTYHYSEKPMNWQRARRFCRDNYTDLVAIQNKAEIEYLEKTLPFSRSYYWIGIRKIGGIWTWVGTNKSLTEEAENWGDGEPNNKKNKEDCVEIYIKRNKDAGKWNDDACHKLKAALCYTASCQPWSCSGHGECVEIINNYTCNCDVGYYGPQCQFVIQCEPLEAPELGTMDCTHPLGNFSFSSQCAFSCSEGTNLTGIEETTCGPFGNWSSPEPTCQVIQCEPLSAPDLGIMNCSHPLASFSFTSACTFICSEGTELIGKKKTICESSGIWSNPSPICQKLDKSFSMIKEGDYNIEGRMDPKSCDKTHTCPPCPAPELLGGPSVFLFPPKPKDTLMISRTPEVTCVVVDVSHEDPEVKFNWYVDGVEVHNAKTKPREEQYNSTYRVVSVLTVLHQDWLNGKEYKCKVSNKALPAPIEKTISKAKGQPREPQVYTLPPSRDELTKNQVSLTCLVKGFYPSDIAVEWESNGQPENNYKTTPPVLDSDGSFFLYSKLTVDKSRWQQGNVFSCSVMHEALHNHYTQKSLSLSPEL
# T4 sequence (P48061 22-93): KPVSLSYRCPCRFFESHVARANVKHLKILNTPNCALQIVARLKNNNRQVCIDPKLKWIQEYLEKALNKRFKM
# γ-interferon inducible protein-10, sequence (P02778 22-98): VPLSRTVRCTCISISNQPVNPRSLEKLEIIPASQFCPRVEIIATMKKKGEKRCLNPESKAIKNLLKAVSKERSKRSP
molecule,measurement,setting,value
chondroitin,interaction with immobilized glycosaminoglycan (sensorgram),[1],did not interact
same,interaction with immobilized glycosaminoglycan (sensorgram),[2],did not interact
same,Kd,[3],129000 nM
same,koff,[3],0.0649 s⁻¹
same,kon,[3],503 M⁻¹ s⁻¹
same,interaction with immobilized glycosaminoglycan (sensorgram),[4],did not interact
same,interaction with immobilized glycosaminoglycan (sensorgram),[5],did not interact
same,interaction with immobilized glycosaminoglycan (sensorgram),[6],did not interact
same,inhibition of binding between biotinylated versican and L-selectin-Ig,[7],not inhibited
same,inhibition of binding between biotinylated versican and P-selectin-Ig,[8],not inhibited
same,inhibition of binding between biotinylated versican and CD44-Ig,[9],inhibited
dermatan sulfate [DS],inhibition of binding between biotinylated versican and L-selectin-Ig,[7],not inhibited
same,inhibition of binding between biotinylated versican and P-selectin-Ig,[8],not inhibited
hyaluronic acid [HA],koff,[10]; CD44-Ig,0.0543 s⁻¹
same,kon,[10]; CD44-Ig,26100 M⁻¹ s⁻¹
same,Kd,[10]; determined using CD44-Ig,2080 nM
B1,Kd,[11],~300 nM
same,association rate,[11],4.4e+06 M⁻¹ s⁻¹
same,dissociation rate,[11],1.4 s⁻¹

# — patent publication US20060211651A1, “Persulfated oligosaccharide acting on selectins and chemokine” (Taisho Pharmaceutical Co., Ltd., priority 2002, published 2006)
